Values of other authors as cited in patent publication US8790676B2, “Microencapsulated pesticide” (priority 2005, dated 2014).
Where two headings read alike, the source gives them in different places.

Row | Molecule | water-solubility (pH 7) | water-solubility (at pH 4.0, 20° C.)
1 | CCN(Cc1ccc(Cl)nc1)/C(=C/[N+](=O)[O-])NC [Nitempyram, (E)-N-(6-chloro-3-pyridylmethyl)-N-ethyl-N′-methyl-2-nitrovinylidenediamine] | > 590 mg/mL | –
2 | (E)-1-(2-chloro-1,3-thiazol-5-yl)-3-methyl-2-nitroguanidine [Clothianidin] | – | 0.304 mg/mL
